What was measured:
TNFα = experiment: Northern blot of endogenous TNFα in stably transfected RAW macrophage clones; type: cell-based; conditions: stable RAW transfectants, baseline
Method: Northern blotting analysis was performed using total RNA made from RAW cell lines transfected with an empty vector as a control and from a panel of 9 independent RAW clones stably transfected with full-length KRC (upper) and 3 RAW clones stably transfected with dominant negative KRC (lower). The blot was probed with a TNFα cDNA and with HPRT as loading control.
HEK293 cells ([…] per well) were seeded in 6 well plates, and 12 h later cells were transfected with EFECTENE™ (Qiagen) with 25 ng of a 2XNFκB-luciferase (Luc) reporter gene plasmid and 0.5 μg of the indicated TRAF and KRC expression vectors. Total amounts of transfected DNA were kept constant by supplementing with control empty expression vector plasmids as needed. Cell extracts were prepared 24 h after transfection, and reporter gene activity was determined via the luciferase assay system (PROMEGA). PRSV-βGal vector (50 ng) was used to normalize for transfection efficiency by measuring β galactosidase activity using the Galacton-PLUS substrate system (TROPIX, Inc.). Whenever indicated, the cells were treated for 4 hours with TNFα or IL-1 (10 ng/ml). To generate stable transfectants, EFECTENE™ mediated transfection of the RAW cell line was performed and clones were selected and maintained in complete medium supplemented with G418 (2 mg/ml). […]

NFκB = NFκB luciferase reporter transfection assay in 293T cells; type: cell-based, human
Method: FIGS. 2(A)-2(C) depicts KRC preventing TRAF-dependent NFkB activation. Inhibition of TRAF2 (FIG. 2(A)), TRAF5 (FIG. 2(B)) and TRAF6 (FIG. 2(C)) mediated activation of NFkB by ectopically expressed KRC. 293 T cells (3×10^5 ) were transfected with 25 ng of NFkB luciferase reporter plasmid, 50 ng of CMVβGal and 1 μg of each indicated plasmid and 24 hours post transfection cells were harvested. Data from at least five experiments normalized for β galactosidase activity are shown. Vec refers to the empty MYC vector without the addition of TRAFs.
293 T cells (3×10^5 ) were transfected with 25 ng of NFκB luciferase reporter plasmid, 50 ng of CMVβGal and 1 μg of each indicated plasmid and 24 hours post transfection cells were stimulated for 4 hours with 10 ng/ml of TNFα. (A) KRC and KRC tr (B) dominant negative and antisense KRC (C) antisense KRC in the presence of exogenous TRAF2. Data from at least five experiments normalized for β galactosidase activity are shown.
HEK293 cells ([…] per well) were seeded in 6 well plates, and 12 h later cells were transfected with EFECTENE™ (Qiagen) with 25 ng of a 2XNFκB-luciferase (Luc) reporter gene plasmid and 0.5 μg of the indicated TRAF and KRC expression vectors. Total amounts of transfected DNA were kept constant by supplementing with control empty expression vector plasmids as needed. Cell extracts were prepared 24 h after transfection, and reporter gene activity was determined via the luciferase assay system (PROMEGA). PRSV-βGal vector (50 ng) was used to normalize for transfection efficiency by measuring β galactosidase activity using the Galacton-PLUS substrate system (TROPIX, Inc.). Whenever indicated, the cells were treated for 4 hours with TNFα or IL-1 (10 ng/ml). To generate stable transfectants, EFECTENE™ mediated transfection of the RAW cell line was performed and clones were selected and maintained in complete medium supplemented with G418 (2 mg/ml).

KRC: full-length KRC zinc finger protein (SEQ ID NO:2) overexpressed from an expression vector
endogenous TNFα mRNA expression (TNFα): substantial decrease of baseline TNFα mRNA transcripts
NFκB activation induced by TRAF5 and TRAF6 (NFκB; 293T cells): substantially but not completely affected
NFkB-dependent transactivation (NFκB; 293T cells, absence of exogenous TRAFs): blocked NFkB-dependent transactivation
TRAF2-induced NFκB activation (NFκB; 293T cells, exogenous TRAF2): blocked TRAF2-induced NFκB activation
TNFα-induced NFκB activation (NFκB; 293 cells, 10 ng/ml TNFα 4 hours): strongly inhibited TNFα-induced NFκB activation

From patent US7615380B2, “Methods for modulating an immune response by modulating KRC activity” (President and Fellows of Harvard College, priority 2001, dated 2009)
